Measurements reported in patent publication US20060069132A1, “Azolecarboxamide herbicides” (priority 2004, published 2006).

Columns and labels:
[1] = system: small flower umbrella sedge; test: Test B flooded paddy test; type: in vivo, Cyperus difformis; conditions: 1000 g ai/ha, scale 0 to 100 (0 no effect, 100 complete control)
How it was run: (§1)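 Formulated test chemicals went onto postemergence plants measuring 2 to 18 cm, at one to four leaves. For the paddy assay, species had reached two leaves. Scoring took place 13–15 days later by eye, relative to untreated plants, using 0 for no effect up to 100 for full control.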

wild oat = test: Test B postemergence herbicide test; type: in vivo, Avena fatua
How it was run: (§2)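 Visual ratings, 0 (no effect) to 100 (complete control), made versus controls after 13–15 d greenhouse. Paddy plants treated at 2-leaf stage; postemergence plants at 1- to 4-leaf stage, 2–18 cm tall.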

pigweed = test: Test B pre-/postemergence herbicide test; type: in vivo, Amaranthus retroflexus; conditions: for Plant response rating (0 to 100 scale), Pigweed: 0 is no effect, 100 is complete control, preemergence
How it was run: (§3)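 Test chemicals in a non-phytotoxic solvent mixture with surfactant were applied preemergence to seeded species and postemergence to plants 2-18 cm tall (1- to 4-leaf stage); rice and barnyardgrass were also tested in a flooded paddy at the 2-leaf stage. Visual rating versus controls after 13-15 days in greenhouse, scale 0 (no effect) to 100 (complete control).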

lambsquarters = test: Test B pre-/postemergence herbicide test; type: in vivo, Chenopodium album; conditions: for Plant response rating (0 to 100 scale), Lambsquarters: 0 is no effect, 100 is complete control, preemergence
How it was run: as §3

velvetleaf = test: Test B pre-/postemergence herbicide test; type: in vivo, Abutilon theophrasti; conditions: for Plant response rating (0 to 100 scale), Velvetleaf: 0 is no effect, 100 is complete control, preemergence
How it was run: as §3

corn = test: Test B pre-/postemergence herbicide test; type: in vivo, Zea mays; conditions: for Plant response rating (0 to 100 scale), Corn: 0 is no effect, 100 is complete control, preemergence
How it was run: as §3

cocklebur = test: Test B pre-/postemergence herbicide test; type: in vivo, Xanthium strumarium; conditions: for Plant response rating (0 to 100 scale), Cocklebur: 0 is no effect, 100 is complete control, preemergence
How it was run: (§4)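 Plants compared with untreated controls 13–15 days post-treatment and given a visual 0–100 injury score. Applications: preemergence to seeds; postemergence at 1- to 4-leaf (2–18 cm); paddy species flooded, 2-leaf stage. Vehicle non-phytotoxic, surfactant included.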

blackgrass = test: Test B postemergence herbicide test; type: in vivo, Alopecurus myosuroides
How it was run: as §1

morningglory = test: Test B pre-/postemergence herbicide test; type: in vivo, Ipomoea coccinea; conditions: for Plant response rating (0 to 100 scale), Morningglory: 0 is no effect, 100 is complete control, preemergence
How it was run: as §4

wheat = test: Test B postemergence herbicide test; type: in vivo, Triticum aestivum; design: key to Wheat plant response rating: 0 = no effect, 100 = complete control
How it was run: as §2

barnyardgrass = test: Test B pre-/postemergence herbicide test; type: in vivo, Echinochloa crus-galli; conditions: for Plant response rating (0 to 100 scale), Barnyardgrass: 0 is no effect, 100 is complete control, preemergence; for Barnyardgrass plant response rating: Postemergence, scale 0 (no effect) to 100 (complete control)
How it was run: as §4

large crabgrass = test: Test B pre-/postemergence herbicide test; type: in vivo, Digitaria sanguinalis; conditions: for Plant response rating (0 to 100 scale), Crabgrass, Large: 0 is no effect, 100 is complete control, preemergence
How it was run: as §3

giant foxtail = test: Test B pre-/postemergence herbicide test; type: in vivo, Setaria faberi; conditions: for Plant response rating (0 to 100 scale), Foxtail, Giant: 0 is no effect, 100 is complete control, preemergence
How it was run: as §3

Surinam grass = test: Test B pre-/postemergence herbicide test; type: in vivo, Urochloa decumbens; conditions: for Plant response rating (0 to 100 scale), Surinam Grass: 0 is no effect, 100 is complete control, preemergence
How it was run: as §3

[2] = Postemergence, 500 g ai/ha, scale 0 (no effect) to 100 (complete control)
[3] = postemergence, 125 g ai/ha, scale 0 to 100
[4] = 500 g ai/ha, scale 0 to 100, 0 no effect, 100 complete control, preemergence

| SMILES | Sedge, Umbrella plant response rating [1] | Oat, Wild plant response rating (wild oat; [2]) | Oat, Wild plant response rating (wild oat; [3]) | Plant response rating (0 to 100 scale), Pigweed (pigweed; 125 g ai/ha) | Pigweed plant response rating (pigweed; [2]) | Pigweed plant response rating (pigweed; [3]) | Plant response rating (0 to 100 scale), Lambsquarters (lambsquarters; 125 g ai/ha) | Lambsquarters plant response rating (lambsquarters; [2]) | Lambsquarters plant response rating (lambsquarters; [3]) | Plant response rating (0 to 100 scale), Velvetleaf (velvetleaf; 125 g ai/ha) | Velvetleaf plant response rating (velvetleaf; [2]) | Velvetleaf plant response rating (velvetleaf; [3]) | Plant response rating (0 to 100 scale), Corn (corn; 125 g ai/ha) | Corn plant response rating (corn; [2]) | Corn plant response rating (corn; [3]) | Plant response rating (0 to 100 scale), Cocklebur (cocklebur; 125 g ai/ha) | Cocklebur plant response rating (cocklebur; [2]) | Cocklebur plant response rating (cocklebur; [3]) | Blackgrass plant response rating (blackgrass; [2]) | Blackgrass plant response rating (blackgrass; [3]) | further results |
| --- | --- | --- | --- | --- | --- | --- | --- | --- | --- | --- | --- | --- | --- | --- | --- | --- | --- | --- | --- | --- | --- |
| Cc1nn(C(C)(C)C)nc1C(=O)Nc1cccc(C(=S)N(C)C)c1 [Compound 419] | 80 | 20 | 0 | 100 | 80 | 60 | 100 | 90 | 70 | 70 | 50 | 20 | 70 | 30 | 20 | 30 | 40 | 20 | 30 | 10 | Plant response rating (0 to 100 scale), Morningglory (morningglory; 125 g ai/ha): 50; Morningglory plant response rating (morningglory; [2]): 90; Morningglory plant response rating (morningglory; [3]): 80; Wheat plant response rating (wheat; [4]): 100; Wheat plant response rating (wheat; [2]): 20; Wheat plant response rating (wheat; [3]): 10; Plant response rating (0 to 100 scale), Barnyardgrass (barnyardgrass; 125 g ai/ha): 100; Barnyardgrass plant response rating (barnyardgrass; 125 g ai/ha): 20; Barnyardgrass plant response rating (barnyardgrass; 500 g ai/ha): 50; Plant response rating (0 to 100 scale), Crabgrass, Large (large crabgrass; 125 g ai/ha): 100; Crabgrass, Large plant response rating (large crabgrass; [2]): 40; Crabgrass, Large plant response rating (large crabgrass; [3]): 30; Plant response rating (0 to 100 scale), Foxtail, Giant (giant foxtail; 125 g ai/ha): 90; Foxtail, Giant plant response rating (giant foxtail; [2]): 30; Foxtail, Giant plant response rating (giant foxtail; [3]): 30; Plant response rating (0 to 100 scale), Surinam Grass (Surinam grass; 125 g ai/ha): 90; Surinam Grass plant response rating (Surinam grass; [2]): 30; Surinam Grass plant response rating (Surinam grass; [3]): 20 |
| CCNC(=S)c1cccc(NC(=O)c2nn(C(C)(C)C)nc2C)c1 [Compound 420] | 70 | 30 | 20 | 100 | 70 | 60 | 100 | 90 | 70 | 50 | 30 | 20 | 70 | 20 | 20 | 0 | 40 | 10 | 40 | 10 | Plant response rating (0 to 100 scale), Morningglory (morningglory; 125 g ai/ha): 50; Morningglory plant response rating (morningglory; [2]): 90; Morningglory plant response rating (morningglory; [3]): 80; Wheat plant response rating (wheat; [4]): 100; Wheat plant response rating (wheat; [2]): 20; Wheat plant response rating (wheat; [3]): 10; Plant response rating (0 to 100 scale), Barnyardgrass (barnyardgrass; 125 g ai/ha): 90; Barnyardgrass plant response rating (barnyardgrass; 125 g ai/ha): 20; Barnyardgrass plant response rating (barnyardgrass; 500 g ai/ha): 50; Plant response rating (0 to 100 scale), Crabgrass, Large (large crabgrass; 125 g ai/ha): 100; Crabgrass, Large plant response rating (large crabgrass; [2]): 40; Crabgrass, Large plant response rating (large crabgrass; [3]): 30; Plant response rating (0 to 100 scale), Foxtail, Giant (giant foxtail; 125 g ai/ha): 80; Foxtail, Giant plant response rating (giant foxtail; [2]): 30; Foxtail, Giant plant response rating (giant foxtail; [3]): 20; Plant response rating (0 to 100 scale), Surinam Grass (Surinam grass; 125 g ai/ha): 70; Surinam Grass plant response rating (Surinam grass; [2]): 30; Surinam Grass plant response rating (Surinam grass; [3]): 20 |
